Each block holds one molecule with its values, some of them ahead of it.
What was measured:
CCK = assay: Capacity to antagonize CCK, relative to the compound of Formula I; details: based on the activity of the compound of Formula I (1 x)
Excerpt: The minor components A-D have also been tested for their capacity to antagonize CCK. Based on the activity of the compound of Formula I, the minor components relative activities are: […]

[1] = Solubility characteristics; assay type: physicochemical
CCK receptor = molecular target: T1, CCK receptor (Rattus norvegicus, UniProt P30551); assay: CCK receptor binding (inhibition of specific 125I-CCK-33 binding to whole pancreas membranes); design: species or system Male Sprague-Dawley rats; details: for IC50: rat pancreas, pH 7.7, 37° C., 30 minutes; for effect on the 125I-CCK receptor binding assay: added protease inhibitors, 1.2 mM phenylmethane sulfonyl fluoride, 0.5 mM o-phenanthroline in assay buffer
T1 construct: The whole pancreas was dissected free of fat tissue and was homogenized; from tissue; host or cells: rat whole pancreas membranes
T1 sequence (P30551 1-444): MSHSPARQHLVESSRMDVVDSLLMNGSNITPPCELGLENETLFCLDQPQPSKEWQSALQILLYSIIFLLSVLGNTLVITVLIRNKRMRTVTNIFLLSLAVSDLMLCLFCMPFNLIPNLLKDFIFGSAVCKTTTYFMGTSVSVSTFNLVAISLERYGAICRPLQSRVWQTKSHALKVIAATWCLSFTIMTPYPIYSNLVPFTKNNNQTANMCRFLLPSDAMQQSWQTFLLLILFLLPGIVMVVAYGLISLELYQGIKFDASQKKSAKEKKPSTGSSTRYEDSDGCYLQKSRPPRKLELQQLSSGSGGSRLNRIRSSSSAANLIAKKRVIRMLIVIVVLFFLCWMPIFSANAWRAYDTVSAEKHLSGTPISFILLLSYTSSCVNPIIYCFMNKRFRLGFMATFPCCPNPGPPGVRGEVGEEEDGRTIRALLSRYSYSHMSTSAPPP
Procedure: CCK-33 was radiolabeled with ^125 I-Bolton Hunter reagent (2000 Ci/mmole) as described by Sankara et al. (J. Biol. Chem. 254: 9349-9351, 1979). Receptor binding was performed according to Innis and Snyder (Proc. Natl. Acad. Sci. 77: 6917-6921, 1980) with the minor modification of adding the additional protease inhibitors, phenylmethane sulfonyl fluoride and o-phenanthroline. The latter two compounds have no effect of the ^125 I-CCK receptor binding assay.
Male Sprague-Dawley rats (200-350 g) were sacrificed by decapitation. The whole pancreas was dissected free of fat tissue and was homogenized in 20 volumes of ice-cold 50 mM, Tris HCl (pH 7.7 at 25° C.) with a Brinkmann Polytron PT 10. The homogenates were centrifuged at 48,000 g for 10 min. Pellets were resuspended in Tris Buffer, centrifuged as above and resuspended in 200 volumes of binding assay buffer (50 mM Tris HCl, pH 7.7 at 25° C., 5 mM dithiothreitol, 0.1 mM bacitracin, 1.2 mM phenylmethane sulfonyl fluoride and 0.5 mM o-phenanthroline). For the binding assay, 25 μl of buffer (for total binding) or unlabeled CCK-8 sulfate to give a final concentration of 1 μM (for nonspecific binding) or the compound of Formula I (for determination inhibition of ^125 I-CCK binding) and 25 μl of ^125 I-CCK-33 (30,000-40,000 cpm) were added to 450 μl of the membrane suspensions in microfuge tubes. All assays were run in duplicate or triplicate. The reaction mixtures were incubated at 37° C. for 30 minutes and centrifuged in a Beckman Microfuge (4 minutes) immediately after adding 1 ml of ice-cold incubation buffer. The supernatant was aspirated and discarded, pellets were counted with a Beckman gamma 5000. For Scatchard analysis (Ann. N.Y. Acad. Sci. 51: 660, 1949), ^125 I-CCK-33 was progressively diluted with increasing concentrations of CCK-33.

[2] = molecular target: T2, isolated longitudinal muscle of guinea pig ileum (CCK-8) (Cavia porcellus, UniProt Q63931); assay: Isolated longitudinal muscle of guinea pig ileum, antagonism of CCK-8 induced contraction; design: species or system Male Hartley guinea pigs
T2 construct: Longitudinal muscle strips with attached nerve plexus were prepared; from tissue; host or cells: guinea pig ileum longitudinal muscle with attached nerve plexus
T2 sequence (Q63931 1-430): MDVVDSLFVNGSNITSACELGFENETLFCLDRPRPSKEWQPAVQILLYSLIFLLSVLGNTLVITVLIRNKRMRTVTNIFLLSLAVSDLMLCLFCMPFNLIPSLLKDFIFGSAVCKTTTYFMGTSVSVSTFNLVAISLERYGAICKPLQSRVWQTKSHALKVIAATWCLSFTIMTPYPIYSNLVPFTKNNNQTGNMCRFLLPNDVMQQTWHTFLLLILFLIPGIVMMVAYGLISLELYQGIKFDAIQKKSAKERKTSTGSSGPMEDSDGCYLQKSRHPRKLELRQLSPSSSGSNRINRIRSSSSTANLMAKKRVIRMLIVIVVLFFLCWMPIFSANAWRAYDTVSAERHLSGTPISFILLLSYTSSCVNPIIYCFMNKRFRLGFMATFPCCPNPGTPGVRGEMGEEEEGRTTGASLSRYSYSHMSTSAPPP
Procedure: Longitudinal muscle strips with attached nerve plexus were prepared as described previously (Brit J. Pharmac. 23:; 356-363, 1964; J. Physiol. 194: 13-33, 1969). Male Hartley guinea pigs were decapitated and the ileum was removed (10 cm of the terminal ileum was discarded and the adjacent 20 cm piece was used). A piece (10 cm) of the ileum was stretched on a glass pipette. Using a cotton applicator to stroke tangently away from the mesentery attachment at one end, the longitudinal muscle was separated from the underlying circular muscle. The longitudinal muscle was then tied to a thread and by gently pulling, stripped away from the entire muscle. A piece of approximately 2 cm was suspended in 5 ml organ bath containing Krebs solution and bubbled with 95% O2 and 5% CO2 at 37° C. under 0.5 g tension. CCK-8 was added cumulatively to the baths and EC50 and pA2 values determined as described in the gall bladder preparation (above).

[3] = molecular target: T3, isolated guinea pig gall bladder (CCK-8) (Cavia porcellus, UniProt Q63931); assay: Isolated guinea pig gall bladder, antagonism of CCK-8 induced contraction; design: species or system Male Hartley guinea pigs
T3 construct: The whole gall bladder was dissected free from adjacent tissues; from tissue; host or cells: guinea pig gall bladder
T3 sequence (Q63931 1-430): T2 sequence (Q63931 1-430)
Procedure: Male Hartley guinea pigs (400-600 g) were sacrificed by decapitation. The whole gall bladder was dissected free from adjacent tissues and its content gently squeezed out. The whole bladder was suspended in 5 ml organ bath under 1 g tension. The organ bath contained a Kreb's bicarbonate solution (NaCl 118 mM, KCl 4.75 mM, CaCl 2.54 mM, KH2 PO4 1.19 mM, Mg SO4 1.2 mM, NaHCO3 25 mM and dextrose 11 mM) maintained at 32° C. and bubbled with 95% O2 and 5% CO2. Isometric contractions were recorded using Statham (60 g; 0.12 mm) strain gauges and a Hewlett-Packard (77588) recorder. The tissues were washed every 10 minutes for 1 hr to obtain equilibrium prior to the beginning of the study. CCK-8 was added cumulatively to the baths and EC50 's determined using regression analysis. After washout (every 10 minutes for 1 hr), the compound of Formula I was added at least 5 minutes before the addition of CCK-8 and the EC50 of CCK-8 in the presence of the compound of Formula I similarly determined. The PA2 values and slope were obtained from regression analysis of a Schild plot (Brit. J. Pharmacol. 14: 48-58, 1959) using three concentrations of the compound of Formula I and 3-4 tissues at each concentration.

SMILES: O=C1c2ccccc2-n2c(nc3ccccc3c2=O)[C@@H]2C[C@]3(O)c4ccccc4N[C@@H]3N12 [Component A]
relative activity to antagonize CCK (CCK): 1/70

SMILES: O=C1NC(Cc2c[nH]c3ccccc23)c2nc3ccccc3c(=O)n2-c2ccccc21 (stereo not drawn) [Component B]
relative activity to antagonize CCK (CCK): 1/7

SMILES: O=C1Nc2ccccc2-c2nc3ccccc3c(=O)n2C1Cc1c[nH]c2ccccc12 (stereo not drawn) [Component C]
relative activity to antagonize CCK (CCK): 1/30

SMILES: CC(C)C[C@H]1C(=O)N2c3ccccc3[C@@](O)(C[C@@H]3NC(=O)c4ccccc4-n4c3nc3ccccc3c4=O)[C@H]2N1O [Component D]
relative activity to antagonize CCK (CCK): 5 x

solubility: insoluble in ([1]; H2O, hexane, pet. ether): insoluble in: H2 O, hexane, pet. ether | Ki (CCK receptor; estimated, 125I-CCK-33 receptor binding, read-out: Ki value (dissociation constant of inhibitor)): 900 nM | IC50 (CCK receptor): 1310 nM | IC50 (CCK receptor; printed in parentheses): 1300 nM | mode of antagonism [2]: competitive antagonism of CCK | slope of the Schild plot ([2]; CCK-8): 0.89±0.20 | Kb ([2]; CCK-8, read-out: pA2 value (Schild plot) (converted)): 398 nM | Ki ([2]; from Schild plot pA2, read-out: Ki corresponding to pA2 (converted)): 400 nM | mode of antagonism ([3]; CCK-8): competitive antagonist of CCK-8 | slope of the Schild plot ([3]; CCK-8): 0.95±0.19 | Kb ([3]; CCK-8, three concentrations, 3-4 tissues each, read-out: pA2 value (Schild plot) (converted)): 1000 nM | Ki ([3]; from Schild plot pA2, read-out: Ki value corresponding to pA2 (converted)): 1000 nM
SMILES: CC(C)C[C@@H]1N[C@H]2N(C1=O)c1ccccc1[C@@]2(O)C[C@@H]1NC(=O)c2ccccc2-n2c1nc1ccccc1c2=O [Formula I]
solubility: soluble in ([1]; CHCl3, MeOH, EtOH, acetone, DMSO): soluble in: CHCl3, MeOH, EtOH, acetone, DMSO | relative activity to antagonize CCK (CCK): 1 x | effect on KD (dissociation constant) and Bmax (maximum receptor number) of 125I-CCK-33 (CCK receptor; Scatchard analysis, 1.3 μM): increased the KD (dissociation constant) without affecting the Bmax (maximum receptor number) | mode of inhibition of specific 125I-CCK-33 receptor binding (CCK receptor; Scatchard analysis, absence and presence of 1.3 μM): competitively inhibited specific ^125 I-CCK-33 receptor binding | effect on CCK-8 dose-response ([2]; 1.3-13 μM): concentration dependent parallel shift to the right of the CCK-8 dose-response without change in the maximal contractile response | effect on CCK-8 dose-response ([3]; 1.3-13 μM): concentration dependent parallel shift to the right of the CCK-8 dose-response without change in the maximal contractile response

effect on the 125I-CCK receptor binding assay (CCK receptor): no effect
SMILES: c1cnc2c(c1)ccc1cccnc12 [o-phenanthroline, reference compound]

SMILES: O=S(=O)(F)Cc1ccccc1 [phenylmethane sulfonyl fluoride, reference compound]
effect on the 125I-CCK receptor binding assay (CCK receptor): no effect
